In paper PMC9816411, “Host-derived chimeric peptides clear the causative bacteria and augment host innate immunity during infection: A case study of HLB in citrus and fire blight in apple” (Frontiers in Plant Science, 2022):
Ends that are not written are not given here.

system: E. coli BL21; conditions: BL21, 24 h

Sequence	IC50 [µM]	IC99 (~MIC) [µM]
FWQRRIRRWRR [11P-3]	49 ± 2.79	160.80 ± 3.25
KKLIKKILKIL [11P-1]	12.9 ± 0.62	29.38 ± 0.75
KKLPKEILKILGSGYGSLPKEILKILELKK [Gen-1]	10.22 ± 0.07	11.4 ± 0.07

system: E. coli strain BL21 (and, in some cases, ATCC25922); conditions: BL21, 24 h

Sequence	MIC [µM]
FQWQRNIRKVR [11P-2]	>20
FWQRRIRRWRR [11P-3]	>20
FWQRRIRRWRRGSGYGSPGKKLIKKILKIL [30P-2]	1.25 to 2.5
FWQRRIRRWRRGSGYGSPGRRWWRWWR [27P-2]	5 to 10
IERSRNLDWYKGPTLLDALKNLNEGKRPSDK [I31LB]	>20
IERSTNLDWYKGPTLL [16P-1]	>20
KKLIKKILKIL [11P-1]	10 to 20
KKLPKEILKILGSGYGSLPKEILKILELKK [Gen-1]	5 to 10
KPRGSEQLQELTRRLLDSPLERRFWQWMRR [UGK-37]	>20
KPRGSEQLQELTRRLLDSPLERRWWEWMRR [UGK-29]	>20
KPRLSEQLQELTRRLLDSPLERRWWEWWRR [UGK-33]	>20
KRPEELLQKLKSLEGSKAHLQHHDWTSK [UGK-41]	>20
LPKRLEELLQKLKSLEGSKAHEKLHDWTRK [UGK-45]	>20
QPKRLEELLEKLKSLEGSKAHEKLHDWTRK [UGK-49]	>20
RLPEAFQWQRNIRKVRRPDSPGRRWWRWWR [UGK-9]	5 to 10
RLPEAFQWQRRLRRWRRPDSPGRRWWRWWR [UGK-5]	5 to 10
RLPKAFQWQRRLRRWRRPYSPGRRWWRWWR [UGK-1]	5 to 10
RRWWRWWR [8P-1]	>20
RRWWRWWRGSGYGSPGFWQRRIRRWRR [27P-1]	>20
RRWWRWWRGSYGSVYGSPGFWQRRIRRWRR [UGI-7]	5 to 10
